Patent publication EP4678638A1, “NEW E3 UBIQUITIN LIGASE LIGAND, PROTEIN DEGRADATION AGENT AND USE THEREOF” (priority 2023, dated 2024)

Key:
[1] = target: T1, WEE1 (Homo sapiens, UniProt P30291+Q96SW2); assay: Western blot degradation of WEE1 (hPBMC); type: cell-based; settings: Table D16
T1 construct: evaluate the effects of the compounds of the present disclosure on the expression of target proteins in cells; endogenous in cells; host or cells: hPBMC
Method: (§1) Conventional Western blot assay was performed to evaluate the effects of the compounds of the present disclosure on the expression of target proteins in cells.
(§2) (1) Cell Seeding and Protein Harvesting: The selected cells were processed according to the cell seeding procedure and protein harvesting procedure in Table III-2. Table III-2 Cell Seeding and Protein Harvesting Procedures
(§3) (2) To the collected supernatant, 5X SDS sample loading buffer was added, followed by denaturation at 95°C for 5 minutes. The denatured samples were then separated by SDS-PAGE electrophoresis on a polyacrylamide gel. Proteins were transferred to a nitrocellulose membrane (0.45 µm NC membrane), blocked with blocking buffer at room temperature for 1 hour, and subjected to antibody incubation and development procedures according to the antibody manufacturer's instructions (Cell Signaling Technology).
(§4) Half-Maximal Degradation Concentration value (the drug concentration required for degrading proteins by 50%, abbreviated as DC50) reads method: comparing the grayscale values of Western blot bands from drug-treated samples with those from blank DMSO-treated controls, and identifying the drug concentration range at which the grayscale value is half that of the DMSO-treated control bands.
(§5) DC50 values can be calculated using ImageJ software to measure grayscale values of Western blot bands from drug-treated samples. The concentration-response curve is fitted to estimate the drug concentration corresponding to half the grayscale value.
(§6) Target protein remaining (%) refers to the percentage of target protein remaining in hPBMC cells after treatment with protein degrader compounds.
(§7) Calculation method for target protein remaining (%): Use ImageJ software to measure grayscale values of Western blot bands from drug (protein degrader)-treated samples. The grayscale value of drug-treated bands is divided by that of internal control protein bands, and the resulting quotient is normalized to obtain the relative percentage of remaining target protein after protein degrader treatment.
(§8) Target protein degradation rate (%) = 100% - target protein remaining (%).

[2] = target: T2, GSPT1 (Homo sapiens, UniProt P15170+Q96SW2); assay: Western blot degradation of GSPT1 (hPBMC); type: cell-based; settings: Table D16
T2 construct: evaluate the effects of the compounds of the present disclosure on the expression of target proteins in cells; endogenous in cells; host or cells: hPBMC
Method: as §1, §2, §3, §4, §5, §6, §7, §8

[3] = target: T3, IKZF3 (Homo sapiens, UniProt Q96SW2+Q9UKT9); assay: Western blot degradation of IKZF3 (hPBMC); type: cell-based; settings: Table D16
T3 construct: evaluate the effects of the compounds of the present disclosure on the expression of target proteins in cells; endogenous in cells; host or cells: hPBMC
Method: as §1, §2, §3, §4, §5, §6, §7, §8

[4] = target: T4, IKZF1 (Homo sapiens, UniProt Q13422+Q96SW2); assay: Western blot degradation of IKZF1 (hPBMC); type: cell-based; settings: Table D16
T4 construct: evaluate the effects of the compounds of the present disclosure on the expression of target proteins in cells; endogenous in cells; host or cells: hPBMC
Method: as §1, §2, §3, §4, §5, §6, §7, §8

[5] = target: T5, CK1a (Homo sapiens, UniProt P48729+Q96SW2); assay: Western blot degradation of CK1a (hPBMC); type: cell-based; settings: Table D16
T5 construct: evaluate the effects of the compounds of the present disclosure on the expression of target proteins in cells; endogenous in cells; host or cells: hPBMC
Method: as §1, §2, §3, §4, §5, §6, §7, §8

[6] = target: T6, IKZF2 (Homo sapiens, UniProt Q96SW2+Q9UKS7); assay: Western blot degradation of IKZF2 (hPBMC); type: cell-based; settings: Table D16
T6 construct: evaluate the effects of the compounds of the present disclosure on the expression of target proteins in cells; endogenous in cells; host or cells: hPBMC
Method: as §1, §2, §3, §4, §5, §6, §7, §8

[7] = tested on: MCF7; assay: CCK-8 proliferation, MCF7 (MCF-7); type: cell-based; settings: Homo sapiens, MCF7; Table B6, compounds designed based on the ALK inhibitors; MCF-7 cells; read-out: Inhibitory activity (IC50, nM) on tumor cell proliferation, MCF-7
In short: (§9)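 CCK-8 viability readout; IC50 from growth-inhibition curve fitting. Cells plated, dosed 24h later with a 10-point series, top 10µM, 5-fold steps. Culture at 37°C, 5% CO2.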

[8] = tested on: MM.1S; assay: CCK-8 proliferation, MM.1S; type: cell-based; settings: Homo sapiens, MM1.S; Table B6, compounds designed based on the ALK inhibitors; MM.1S cells; read-out: Inhibitory activity (IC50, nM) on tumor cell proliferation, MM.1S
In short: as §9

[9] = target: T7, ALK (Homo sapiens, UniProt Q96SW2+Q9HC35+Q9UM73); assay: Western blot degradation of ALK (H2228 Cell); type: cell-based; settings: Table D5
T7 construct: evaluate the effects of the compounds of the present disclosure on the expression of target proteins in cells; endogenous in cells; host or cells: H2228
In short: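 Degradation is assessed by immunoblotting lysates of treated cells. Target bands are quantified by grayscale and normalised to an internal control, so degradation rate equals 100% minus % remaining.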

[10] = tested on: H2228; assay: CCK-8 proliferation, NCI-H2228 (H2228); type: cell-based; settings: Homo sapiens, NCI-H2228; Table B6, compounds designed based on the ALK inhibitors; H2228 cells; read-out: Inhibitory activity (IC50, nM) on tumor cell proliferation, H2228
In short: as §9

[11] = tested on: H1975; assay: CCK-8 proliferation, NCI-H1975 (H1975); type: cell-based, Human; settings: Homo sapiens, NCI-H1975; Table B6, compounds designed based on the ALK inhibitors; H1975 cells; read-out: Inhibitory activity (IC50, nM) on tumor cell proliferation, H1975
In short: as §9

[12] = tested on: SR; assay: CCK-8 proliferation, SR; type: cell-based, Human; settings: Homo sapiens; Table B6, compounds designed based on the ALK inhibitors; SR cells; read-out: Inhibitory activity (IC50, nM) on tumor cell proliferation, SR
In short: as §9

T6 sequence (Q9UKS7 whole entry): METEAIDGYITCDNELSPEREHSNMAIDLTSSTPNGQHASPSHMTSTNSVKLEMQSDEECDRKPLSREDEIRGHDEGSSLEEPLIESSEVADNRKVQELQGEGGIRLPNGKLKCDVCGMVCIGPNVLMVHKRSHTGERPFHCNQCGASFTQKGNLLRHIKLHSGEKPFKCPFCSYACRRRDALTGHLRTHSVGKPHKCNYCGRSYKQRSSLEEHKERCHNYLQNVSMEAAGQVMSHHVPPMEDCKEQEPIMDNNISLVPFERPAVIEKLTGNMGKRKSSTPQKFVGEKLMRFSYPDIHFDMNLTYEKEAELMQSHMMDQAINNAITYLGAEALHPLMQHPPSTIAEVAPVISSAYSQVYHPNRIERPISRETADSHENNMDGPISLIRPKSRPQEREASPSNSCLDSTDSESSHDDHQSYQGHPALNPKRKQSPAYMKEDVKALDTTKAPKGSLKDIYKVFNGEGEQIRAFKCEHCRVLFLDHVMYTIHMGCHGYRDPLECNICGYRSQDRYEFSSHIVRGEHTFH
T6 sequence (Q96SW2 whole entry): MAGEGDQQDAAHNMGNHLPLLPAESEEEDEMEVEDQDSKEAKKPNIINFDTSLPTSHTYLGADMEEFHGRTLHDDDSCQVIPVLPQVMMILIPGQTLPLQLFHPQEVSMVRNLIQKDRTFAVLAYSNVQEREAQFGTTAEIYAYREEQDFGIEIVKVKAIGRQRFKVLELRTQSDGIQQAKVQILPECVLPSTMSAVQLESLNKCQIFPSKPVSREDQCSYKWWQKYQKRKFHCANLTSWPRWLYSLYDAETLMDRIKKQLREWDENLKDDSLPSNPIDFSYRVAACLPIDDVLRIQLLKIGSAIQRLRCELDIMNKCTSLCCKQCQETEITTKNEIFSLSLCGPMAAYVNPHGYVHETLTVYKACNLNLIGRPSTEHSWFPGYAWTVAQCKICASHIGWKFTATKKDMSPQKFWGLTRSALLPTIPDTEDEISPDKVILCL
T6 sequence (Q16531 whole entry partner): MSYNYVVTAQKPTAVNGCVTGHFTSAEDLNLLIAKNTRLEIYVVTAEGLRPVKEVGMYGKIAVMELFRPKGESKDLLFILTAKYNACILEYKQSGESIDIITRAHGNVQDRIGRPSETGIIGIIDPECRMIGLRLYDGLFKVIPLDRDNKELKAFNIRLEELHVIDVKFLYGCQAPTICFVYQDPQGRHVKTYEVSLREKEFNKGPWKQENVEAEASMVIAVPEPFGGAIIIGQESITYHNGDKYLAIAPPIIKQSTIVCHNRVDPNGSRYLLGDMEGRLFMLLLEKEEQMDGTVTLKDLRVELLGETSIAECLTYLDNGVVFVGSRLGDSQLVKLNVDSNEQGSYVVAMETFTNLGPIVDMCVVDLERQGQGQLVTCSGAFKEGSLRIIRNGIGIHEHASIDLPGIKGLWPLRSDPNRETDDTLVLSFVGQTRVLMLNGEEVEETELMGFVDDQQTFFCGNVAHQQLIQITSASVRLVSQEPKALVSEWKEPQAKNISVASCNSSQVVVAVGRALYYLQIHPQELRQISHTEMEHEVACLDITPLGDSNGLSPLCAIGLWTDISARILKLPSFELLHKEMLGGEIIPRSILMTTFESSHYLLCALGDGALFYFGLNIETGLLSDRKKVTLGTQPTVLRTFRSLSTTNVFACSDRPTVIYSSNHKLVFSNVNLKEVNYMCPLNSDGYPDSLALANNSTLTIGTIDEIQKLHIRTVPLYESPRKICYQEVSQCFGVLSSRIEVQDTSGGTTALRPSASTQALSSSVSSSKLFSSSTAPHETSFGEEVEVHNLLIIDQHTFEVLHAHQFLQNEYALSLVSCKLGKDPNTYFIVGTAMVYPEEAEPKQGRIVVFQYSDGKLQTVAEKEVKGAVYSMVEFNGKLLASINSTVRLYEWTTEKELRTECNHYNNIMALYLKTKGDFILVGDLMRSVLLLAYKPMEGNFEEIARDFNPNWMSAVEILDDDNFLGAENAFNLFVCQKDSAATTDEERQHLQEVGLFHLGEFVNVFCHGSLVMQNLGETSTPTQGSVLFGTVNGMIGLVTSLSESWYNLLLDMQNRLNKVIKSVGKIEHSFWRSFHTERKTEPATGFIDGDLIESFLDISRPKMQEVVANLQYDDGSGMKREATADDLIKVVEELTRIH
T3 sequence (Q9UKT9 whole entry): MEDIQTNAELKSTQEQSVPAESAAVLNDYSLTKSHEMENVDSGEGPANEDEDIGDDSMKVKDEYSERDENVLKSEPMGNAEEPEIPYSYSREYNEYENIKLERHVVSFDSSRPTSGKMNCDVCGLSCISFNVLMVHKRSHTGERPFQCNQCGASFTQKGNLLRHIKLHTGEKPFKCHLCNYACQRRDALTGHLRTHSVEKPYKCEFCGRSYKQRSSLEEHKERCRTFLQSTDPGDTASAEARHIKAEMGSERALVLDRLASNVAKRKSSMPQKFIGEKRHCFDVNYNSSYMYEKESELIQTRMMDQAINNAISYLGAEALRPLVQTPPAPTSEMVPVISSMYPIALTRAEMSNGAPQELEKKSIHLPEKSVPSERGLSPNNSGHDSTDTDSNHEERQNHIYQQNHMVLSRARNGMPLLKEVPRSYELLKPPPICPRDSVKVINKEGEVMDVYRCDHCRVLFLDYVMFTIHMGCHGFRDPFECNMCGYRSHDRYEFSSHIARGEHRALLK
T3 sequence (Q96SW2 whole entry): as the sequence (Q96SW2 whole entry) above
T3 sequence (Q16531 whole entry partner): as the sequence (Q16531 whole entry partner) above
T5 sequence (P48729 whole entry): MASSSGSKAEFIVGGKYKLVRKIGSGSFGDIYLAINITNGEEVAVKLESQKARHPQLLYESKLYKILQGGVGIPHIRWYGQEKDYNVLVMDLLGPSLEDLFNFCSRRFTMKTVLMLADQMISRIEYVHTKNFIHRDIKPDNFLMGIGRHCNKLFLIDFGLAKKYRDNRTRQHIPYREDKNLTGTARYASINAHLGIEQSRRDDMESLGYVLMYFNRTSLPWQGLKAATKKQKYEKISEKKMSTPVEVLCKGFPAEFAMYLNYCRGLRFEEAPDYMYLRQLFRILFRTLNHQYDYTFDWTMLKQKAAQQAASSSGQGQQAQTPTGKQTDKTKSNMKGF
T5 sequence (Q96SW2 whole entry): as the sequence (Q96SW2 whole entry) above
T5 sequence (Q16531 whole entry partner): as the sequence (Q16531 whole entry partner) above
T2 sequence (P15170 whole entry): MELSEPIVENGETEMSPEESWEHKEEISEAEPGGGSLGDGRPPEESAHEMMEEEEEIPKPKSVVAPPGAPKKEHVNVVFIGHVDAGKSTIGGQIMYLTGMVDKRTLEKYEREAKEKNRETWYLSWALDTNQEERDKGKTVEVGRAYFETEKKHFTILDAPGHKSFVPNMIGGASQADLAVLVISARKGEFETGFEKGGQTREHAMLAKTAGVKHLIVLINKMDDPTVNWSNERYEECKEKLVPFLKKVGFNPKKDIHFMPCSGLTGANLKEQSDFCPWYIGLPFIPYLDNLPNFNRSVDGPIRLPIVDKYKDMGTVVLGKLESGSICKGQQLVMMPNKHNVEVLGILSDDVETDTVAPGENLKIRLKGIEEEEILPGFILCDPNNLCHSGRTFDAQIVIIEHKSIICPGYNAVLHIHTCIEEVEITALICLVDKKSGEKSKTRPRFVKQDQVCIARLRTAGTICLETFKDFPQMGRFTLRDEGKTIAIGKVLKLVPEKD
T2 sequence (Q96SW2 whole entry): as the sequence (Q96SW2 whole entry) above
T2 sequence (Q16531 whole entry partner): as the sequence (Q16531 whole entry partner) above
T4 sequence (Q13422 whole entry): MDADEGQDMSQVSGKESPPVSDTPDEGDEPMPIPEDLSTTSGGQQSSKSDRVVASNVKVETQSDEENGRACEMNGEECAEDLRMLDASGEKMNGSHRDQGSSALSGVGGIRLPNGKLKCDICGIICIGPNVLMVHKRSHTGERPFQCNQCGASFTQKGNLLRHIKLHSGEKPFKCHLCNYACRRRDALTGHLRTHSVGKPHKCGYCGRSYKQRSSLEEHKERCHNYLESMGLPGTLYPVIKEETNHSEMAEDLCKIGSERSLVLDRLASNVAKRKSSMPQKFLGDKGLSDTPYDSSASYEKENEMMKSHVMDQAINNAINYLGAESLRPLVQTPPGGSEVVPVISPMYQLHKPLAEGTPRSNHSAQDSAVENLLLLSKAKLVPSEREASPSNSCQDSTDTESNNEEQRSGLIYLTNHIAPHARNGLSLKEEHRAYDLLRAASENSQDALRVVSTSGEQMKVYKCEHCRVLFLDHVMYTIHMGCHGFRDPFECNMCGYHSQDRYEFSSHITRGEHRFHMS
T4 sequence (Q96SW2 whole entry): as the sequence (Q96SW2 whole entry) above
T4 sequence (Q16531 whole entry partner): as the sequence (Q16531 whole entry partner) above

| SMILES | Degradation of substrate protein WEE1 (substrate protein remaining %) [1] | Degradation of substrate protein GSPT1 (substrate protein remaining %) [2] | Degradation of substrate protein IKZF3 (substrate protein remaining %) [3] | Degradation of substrate protein IKZF1 (substrate protein remaining %) [4] | Degradation of substrate protein CKla (substrate protein remaining %) [5] | Degradation of substrate protein IKZF2 (substrate protein remaining %) [6] | IC50 [7] | IC50 [8] | Degradation of substrate protein ALK (substrate protein remaining %) [9] | IC50 [10] | IC50 [11] | IC50 [12] |
| --- | --- | --- | --- | --- | --- | --- | --- | --- | --- | --- | --- | --- |
| NCc1cc(N2CCC(=O)NC2=O)cnc1F [GT-07729, 1-(5-(Aminomethyl)-6-fluoropyridin-3-yl)dihydropyrimidine-2,4(1H,3H)-dione] | A (A is defined as 0% ≤ substrate protein remaining % ≤ 80%) | A (A is defined as 0% ≤ substrate protein remaining % ≤ 80%) | A (A is defined as 0% ≤ substrate protein remaining % ≤ 80%) | A (A is defined as 0% ≤ substrate protein remaining % ≤ 80%) | B (B is defined as substrate protein remaining % > 80%) | A (A is defined as 0% ≤ substrate protein remaining % ≤ 80%) | – | – | – | – | – | – |
| CC(C)(C)[Si](C)(C)OCc1ccncc1NC1CCC(=O)NC1=O (stereo not shown) [GT-07638, 3-((4-(((tert-Butyldimethylsilyl)oxy)methyl)pyridin-3-yl)amino)piperidine-2,6-dione] | A (A is defined as 0% ≤ substrate protein remaining % ≤ 80%) | A (A is defined as 0% ≤ substrate protein remaining % ≤ 80%) | A (A is defined as 0% ≤ substrate protein remaining % ≤ 80%) | B (B is defined as substrate protein remaining % > 80%) | B (B is defined as substrate protein remaining % > 80%) | A (A is defined as 0% ≤ substrate protein remaining % ≤ 80%) | – | – | – | – | – | – |
| COc1cc(N2CCC(N(C)Cc3ccnc(N4CCC(=O)NC4=O)c3)CC2)ccc1Nc1ncc(Cl)c(Nc2ccccc2P(C)(C)=O)n1 [GT-07694, 1-(4-(((1-(4-((5-chloro-4-((2-(dimethylphosphoryl)phenyl)amino)pyrimidin-2-yl)amino)-3-methoxyphenyl)piperidin-4-yl)(methyl)amino)methyl)pyridin-2-yl)dihydropyrimidine-2,4(1H,3H)-dione] | – | – | – | – | – | – | 100 to 500 nM | 500 to 1000 nM | A (A is defined as 0% ≤ substrate protein remaining % ≤ 80%) | 10 to 50 nM | 100 to 500 nM | 1 to 10 nM |
| CC(C)(C)[Si](C)(C)OCc1cncnc1NC1CCC(=O)NC1=O (stereo not shown) [GT-07639, 3-((5-(((tert-Butyldimethylsilyl)oxy)methyl)pyrimidin-4-yl)amino)piperidine-2,6-dione] | A (A is defined as 0% ≤ substrate protein remaining % ≤ 80%) | A (A is defined as 0% ≤ substrate protein remaining % ≤ 80%) | A (A is defined as 0% ≤ substrate protein remaining % ≤ 80%) | A (A is defined as 0% ≤ substrate protein remaining % ≤ 80%) | A (A is defined as 0% ≤ substrate protein remaining % ≤ 80%) | A (A is defined as 0% ≤ substrate protein remaining % ≤ 80%) | – | – | – | – | – | – |
| O=C1CCC(c2ncc(CO)cc2F)C(=O)N1 (stereo not shown) [GT-07443, 3-(3-Fluoro-5-(hydroxymethyl)pyridin-2-yl)piperidine-2,6-dione] | A (A is defined as 0% ≤ substrate protein remaining % ≤ 80%) | A (A is defined as 0% ≤ substrate protein remaining % ≤ 80%) | B (B is defined as substrate protein remaining % > 80%) | A (A is defined as 0% ≤ substrate protein remaining % ≤ 80%) | A (A is defined as 0% ≤ substrate protein remaining % ≤ 80%) | A (A is defined as 0% ≤ substrate protein remaining % ≤ 80%) | – | – | – | – | – | – |
| O=C1CCC(c2cc(CO)c(F)cn2)C(=O)N1 (stereo not shown) [GT-07444, 3-(5-Fluoro-4-(hydroxymethyl)pyridin-2-yl)piperidine-2,6-dione] | B (B is defined as substrate protein remaining % > 80%) | B (B is defined as substrate protein remaining % > 80%) | A (A is defined as 0% ≤ substrate protein remaining % ≤ 80%) | B (B is defined as substrate protein remaining % > 80%) | B (B is defined as substrate protein remaining % > 80%) | A (A is defined as 0% ≤ substrate protein remaining % ≤ 80%) | – | – | – | – | – | – |
| O=C1CCC(Nc2ncc(CO)cn2)C(=O)N1 (stereo not shown) [GT-07809, 3-((5-(Hydroxymethyl)pyrimidin-2-yl)amino)piperidine-2,6-dione] | A (A is defined as 0% ≤ substrate protein remaining % ≤ 80%) | B (B is defined as substrate protein remaining % > 80%) | A (A is defined as 0% ≤ substrate protein remaining % ≤ 80%) | A (A is defined as 0% ≤ substrate protein remaining % ≤ 80%) | B (B is defined as substrate protein remaining % > 80%) | A (A is defined as 0% ≤ substrate protein remaining % ≤ 80%) | – | – | – | – | – | – |
| Cc1cc(Nc2ncc(Cl)c(Nc3ccccc3S(=O)(=O)C(C)C)n2)c(OC(C)C)cc1C1CCN(Cc2ccc(C3CCC(=O)NC3=O)cn2)CC1 (stereo not shown) [GT-07600, 3-(6-((4-(4-((5-chloro-4-((2-(isopropylsulfonyl)phenyl)amino)pyrimidin-2-yl)amino)-5-isopropoxy-2-methylphenyl)piperidin-1-yl)methyl)pyridin-3-yl)piperidine-2,6-dione] | – | – | – | – | – | – | 100 to 500 nM | 500 to 1000 nM | A (A is defined as 0% ≤ substrate protein remaining % ≤ 80%) | 50 to 100 nM | – | 10 to 50 nM |
| Cc1cc(Nc2ncc(Cl)c(Nc3ccccc3S(=O)(=O)C(C)C)n2)c(OC(C)C)cc1C1CCN(Cc2cccc(N3CCC(=O)NC3=O)c2)CC1 [GT-07593, 1-(3-((4-(4-((5-chloro-4-((2-(isopropylsulfonyl)phenyl)amino)pyrimidin-2-yl)amino)-5-isopropoxy-2-methylphenyl)piperidin-1-yl)methyl)phenyl)dihydropyr imidine-2,4(1H,3H)-dione] | – | – | – | – | – | – | 100 to 500 nM | 500 to 1000 nM | A (A is defined as 0% ≤ substrate protein remaining % ≤ 80%) | 50 to 100 nM | – | 10 to 50 nM |
